{"source": "paper PMC5086919", "about": "“Antileukemic Scalarane Sesterterpenoids and Meroditerpenoid from Carteriospongia (Phyllospongia) sp., Induce Apoptosis via Dual Inhibitory Effects on Topoisomerase II and Hsp90” (Scientific Reports, 2016)", "key": {"Molt 4 cells [1]": {"tested_on": "Molt 4 cells", "test": "MTT antiproliferative assay, leukemia Molt 4 cells", "format": "cell-based", "conditions": "Homo sapiens"}, "Molt 4 cells [2]": {"tested_on": "Molt 4 cells", "test": "Intracellular Ca2+ accumulation, Fluo 3 flow cytometry", "format": "cell-based, human", "conditions": "0.0625 μg/mL", "protocol": "Oxidative stress is manifested by ROS overexpression and cannot be balanced by the available antioxidant machinery. Compound 1 can damage the integrity of mitochondria, which are the major production sites of the superoxide anion, […]. The induction of the intracellular formation of ROS by 1 was determined with a carboxyl derivative of fluorescein, carboxy-H2DCFDA dye using flow cytometric analysis. […] In addition, ROS generation could induce ER stress leading to mitochondria-related apoptosis. To further investigate if ER stress is involved in the apoptotic effect induced by 1, Western blot analysis was used to determine the expression of ER stress-related proteins. […] Furthermore, the effect of 1 on the release of intracellular Ca^2+, was evaluated using fluorescent calcium indicator, Fluo 3. […] The induction of the typical executor caspases-3 and −7, as well as γH2AX, was also observed using Western blot analysis (Fig. 7D). To confirm the induction of DNA damage by 1 in Molt 4 cells, a comet assay under neutral electrophoresis condition was utilized. The effect of 1 (0.0625 μg/mL) at different time intervals (0, 3, 6 and 9 h) on the level of nuclear DNA integrity was determined. […] The DNA migration was represented by the induction of DSBs in a time-dependent increase, as indicated by the abnormal tails’ sizes in the comet assay.\n(§1) These assays were performed as described previously. […] In brief, the treated cells were labeled with a specific fluorescent dye for 30 min. After labeling, cells were washed with PBS and resuspended in PBS at a concentration of 1 × 10^6 cells/mL before analysis via flow cytometry."}, "Molt 4 cells [3]": {"tested_on": "Molt 4 cells", "test": "Annexin V/PI apoptosis assay", "format": "cell-based, human", "protocol": "The externalization of phosphatidylserine (PS) and membrane integrity were quantified using an annexin V- FITC staining kit[72]. In brief, 10^6 cells were grown in 35 mm diameter plates and were labeled with annexin V-FITC (10 μg/mL) and PI (20 μg/mL) prior to harvesting. After labeling, all plates were washed with a binding buffer and harvested. Cells were resuspended in the binding buffer at a concentration of 2 × 10^5 cells/mL before analysis by flow cytometer FACS-Calibur (Becton-Dickinson, San Jose, CA, USA) and CellQuest software. Approximately 10,000 cells were counted for each determination."}, "Molt 4 cells [4]": {"tested_on": "Molt 4 cells", "test": "MMP disruption, JC-1 staining flow cytometry", "format": "cell-based, human", "conditions": "0, 0.0625, 0.125 and 0.25 μg/mL, 24 h", "protocol": "as §1"}, "γH2AX in Molt 4 cells": {"tested_on": "γH2AX in Molt 4 cells", "test": "Western blot of γH2AX (DNA damage biomarker)", "format": "cell-based, human", "conditions": "0, 0.0625, 0.125 and 0.25 μg/mL, 24 h", "source_text": "The ability of Topo II to generate DNA damage in the presence of Topo II-targeting agents led to the hypothesis that an important determinant of drug sensitivity was related to the overall level of Topo II[17]. […] Such findings encouraged us to evaluate the effect of the isolates on Topo II activity. In order to confirm whether the DNA damage-induced by the isolated sesterterpenoids involved the inhibition of Topo II activity, a cell-free DNA cleavage assay using an enzyme-mediated negatively supercoiled pHOT1 plasmid DNA was applied. […] These marine terpenoids suppressed Topo II activity, resulting in the inhibition of supercoiled DNA relaxation in a dose-dependent manner (Fig. 5A). […] To determine whether the apoptotic mechanism of these compounds affects γH2AX (as a biomarker of DNA damage) induction, Western blot analysis was employed to examine the activation of γH2AX.\n(§2) Cell lysates were prepared by treating the cells for 30 min in RIPA lysis buffer, 1% Nonidet P-40, 0.5% sodium deoxycholate, 0.1% sodium dodecyl sulphate (SDS), 1 mM sodium orthovanadate, 100 μg/mL phenylmethylsulfonyl fluoride and 30 μg/mL aprotinin) (all chemicals were from Sigma)[38]. The lysates were centrifuged at 20,000 × g for 30 min, and the protein concentration in the supernatant was determined using a BCA protein assay kit (Pierce). Equal amounts of proteins were respectively separated by 7.5%, 10% or 12% of SDS-polyacrylamide gel electrophoresis and then were electrotransferred to a PVDF membrane. The membrane was blocked with a solution containing 5% non-fat dry milk TBST buffer (20 mM Tris-HCl, pH 7.4, 150 mM NaCl and 0.1% Tween 20) for 1 h and washed with TBST buffer. The protein expressions were monitored by immunoblotting using specific antibodies. These proteins were detected by an enhanced chemiluminescence kit (Pierce)."}, "[5]": {"tested_on": "ER stress-related proteins in Molt 4 cells", "test": "Western blot of ER stress-related proteins", "format": "cell-based, human", "conditions": "0.0625 μg/mL, time-dependent", "protocol": "(§3) Oxidative stress is manifested by ROS overexpression and cannot be balanced by the available antioxidant machinery. Compound 1 can damage the integrity of mitochondria, which are the major production sites of the superoxide anion, […]. The induction of the intracellular formation of ROS by 1 was determined with a carboxyl derivative of fluorescein, carboxy-H2DCFDA dye using flow cytometric analysis. […] In addition, ROS generation could induce ER stress leading to mitochondria-related apoptosis. To further investigate if ER stress is involved in the apoptotic effect induced by 1, Western blot analysis was used to determine the expression of ER stress-related proteins. […] Furthermore, the effect of 1 on the release of intracellular Ca^2+, was evaluated using fluorescent calcium indicator, Fluo 3. […] The effect of 1 (0.0625 μg/mL) at different time intervals (0, 3, 6 and 9 h) on the level of nuclear DNA integrity was determined. […]\n(§4) Cell lysates were prepared by treating the cells for 30 min in RIPA lysis buffer, 1% Nonidet P-40, 0.5% sodium deoxycholate, 0.1% sodium dodecyl sulphate (SDS), 1 mM sodium orthovanadate, 100 μg/mL phenylmethylsulfonyl fluoride and 30 μg/mL aprotinin) (all chemicals were from Sigma)[38]. The lysates were centrifuged at 20,000 × g for 30 min, and the protein concentration in the supernatant was determined using a BCA protein assay kit (Pierce). […]"}, "[6]": {"tested_on": "PARP and caspases in Molt 4 cells", "test": "Western blot of apoptosis-related proteins", "format": "cell-based, human", "conditions": "0.0625 μg/mL, time-dependent", "protocol": "as §3, §4"}, "[7]": {"tested_on": "Hsp90 client proteins in Molt 4 cells", "test": "Western blot of Hsp90, Hsp70, HSF 1 and Hsp90 client proteins", "format": "cell-based, human", "conditions": "0.0625 μg/mL, different time intervals", "protocol": "It was also reported that the induction of Hsp70 is the biomarker of Hsp90 with N-terminal inhibition. Aiming to understand the relation between Hsp90 function and the expression of Hsp70 and 90 clients, we treated Molt 4 cells with 1 (0.0625 μg/mL) for different time intervals. […] The majority of Hsps accumulate in subcellular localizations that determine whether a cell is going to die or differentiate. Erythroblasts with accumulated nuclear Hsp70 continued their differentiation process during the formation of red blood cells. Furthermore, we identified the localization of Hsp70 in response to 1 treatment using immunofluorescence by confocal microscope.\nas §2"}, "K562 cells": {"tested_on": "K562 cells", "test": "MTT antiproliferative assay, leukemia K562 cells", "conditions": "Homo sapiens, K562, 72 h, read-out: IC50, cytotoxicity, Leukemia K562", "excerpt": "(§5) Several cancer cell lines including leukemia K562, Molt 4, and HL 60 cells, prostate cancer LNCaP cells, colon cancer DLD-1 cells and breast cancer T-47D cells were used to evaluate the antiproliferative activity.\n(§6) The cell lines were obtained from the American Type Culture Collection (ATCC, Manassas, VA, USA). […] Dimethyl sulfoxide (DMSO), 3-(4,5-dimethylthiazol-2-yl)-2,5-diphenyl-tetrazolium bromide (MTT) and all other chemicals were purchased from Sigma-Aldrich (St. Louis, MO, USA)."}, "U937 cells": {"tested_on": "U937 cells", "test": "MTT antiproliferative assay, lymphoma U937 cells", "conditions": "Homo sapiens, U-937, 72 h, read-out: IC50, cytotoxicity, Lymphoma U937"}, "DLD-1 cells": {"tested_on": "DLD-1 cells", "test": "MTT antiproliferative assay, colon cancer DLD-1 cells", "conditions": "Homo sapiens, DLD-1, 72 h, read-out: IC50, cytotoxicity, Colon DLD-1", "excerpt": "as §5, §6"}, "LNCaP cells": {"tested_on": "LNCaP cells", "test": "MTT antiproliferative assay, prostate cancer LNCaP cells", "conditions": "Homo sapiens, 72 h, read-out: IC50, cytotoxicity, Prostate LNCaP", "excerpt": "as §5, §6"}}, "note": "Read-outs that look alike come from different tables or passages of the source."}
{"smiles": "CC[C@@]1(C)CCC[C@]2(C)[C@H]3C[C@@H](OC(=O)C[C@@H](C)O)[C@]4(C)[C@@H](C=O)C(C(C)=O)=CC[C@H]4[C@]3(C)CC[C@@H]12", "note": "(relative stereo) [Compound 1, 12β-(3′β-hydroxybutanoyloxy)-20,24-dimethyl-24-oxo-scalara-16-en-25-al]", "values": [{"measurement": "IC50", "setting": "Molt 4 cells [1]; 72 h, read-out: IC50, cytotoxicity, Leukemia Molt 4", "value": 0.01, "unit": "µg/mL"}, {"measurement": "IC50", "setting": "Molt 4 cells [1]; molar value in brackets, read-out: antiproliferative activity (IC50), Molt 4", "value": 19.1, "unit": "nM"}, {"measurement": "increase in intracellular Ca2+ accumulation compared to MFI of control", "setting": "Molt 4 cells [2]; 0.5 h", "value": 1.03, "unit": "folds"}, {"measurement": "increase in intracellular Ca2+ accumulation compared to MFI of control", "setting": "Molt 4 cells [2]; 1 h", "value": 1.05, "unit": "folds"}, {"measurement": "increase in intracellular Ca2+ accumulation compared to MFI of control", "setting": "Molt 4 cells [2]; 2 h", "value": 1.06, "unit": "folds"}, {"measurement": "increase in intracellular Ca2+ accumulation compared to MFI of control", "setting": "Molt 4 cells [2]; 3 h", "value": 1.37, "unit": "folds"}, {"measurement": "increase in intracellular Ca2+ accumulation compared to MFI of control", "setting": "Molt 4 cells [2]; 6 h", "value": 2.41, "unit": "folds"}, {"measurement": "increase in intracellular Ca2+ accumulation compared to MFI of control", "setting": "Molt 4 cells [2]; 18 h", "value": 1.06, "unit": "folds"}, {"measurement": "apoptotic population of Molt 4 cells", "setting": "Molt 4 cells [3]; 0, 0.0625, 0.125 and 0.25 μg/mL, 24 h, annexin-V/PI", "value": "increase in the apoptotic population"}, {"measurement": "lowest dose inducing mitochondrial dysfunction and apoptotic cell death", "setting": "Molt 4 cells [3]; 24 h, flow cytometry", "value": 0.0625, "unit": "µg/mL"}, {"measurement": "concentration that triggered MMP disruption and apoptosis", "setting": "Molt 4 cells [3]; Molt 4 cells, molar value in brackets", "value": 125, "unit": "nM"}, {"measurement": "mitochondrial membrane potential", "setting": "Molt 4 cells [4]", "value": "disruption in mitochondrial membrane potential"}, {"measurement": "expression of γH2AX", "setting": "γH2AX in Molt 4 cells", "value": "significantly enhanced the expression of γH2AX in a dose-dependent manner"}, {"measurement": "levels of ER stress-related proteins", "setting": "[5]", "value": "promoted the levels of Bip, Chop, Grp 94 as well as the activation and cleavage of ATF 6 but suppressed the levels of PERK and IRE 1"}, {"measurement": "PARP and caspase cleavages", "setting": "[6]", "value": "significant increase of PARP, caspases-8 and −9 cleavages"}, {"measurement": "expression of HSF 1 protein", "setting": "[7]", "value": "attenuated"}, {"measurement": "expression of Hsp70", "setting": "[7]", "value": "increased in a time-dependent manner"}, {"measurement": "expression of Hsp90 client proteins (p70S6k, NFκB, Raf-1, p-GSK3β, MEK 1, XIAP, MDM 2, Rb2, CDK4, HIF 1, HSF1)", "setting": "[7]", "value": "suppression of Hsp90 client proteins was observed"}, {"measurement": "expression of Hsp90 protein", "setting": "[7]", "value": "did not notably attenuate the expression of Hsp90 protein"}, {"measurement": "IC50", "setting": "K562 cells", "value": 0.01, "unit": "µg/mL"}, {"measurement": "IC50", "setting": "U937 cells", "value": 0.01, "unit": "µg/mL"}, {"measurement": "IC50", "setting": "DLD-1 cells", "value": 2.33, "unit": "µg/mL"}, {"measurement": "IC50", "setting": "LNCaP cells", "value": 13.9, "unit": "µg/mL"}]}
